For assay [1], the system named is P. damselae subsp. damselae (DSM 7482). It is filed as cell-based, Photobacterium damselae subsp. damselae. Conditions: DSM 7482, 24 h. As for the experimental part: (§1) The biological activity of sea bass piscidin mature peptides was studied by determining their antimicrobial properties. Synthetic piscidin peptides were based on the predicted coding sequences and were commercially produced (NZYtech, Lisbon, Portugal) with an additional C-terminal amidation (Table S3). Peptides were incubated in serial dilutions with ten bacterial strains, known to cause severe diseases in aquaculture: Photobacterium damselae subsp. piscicida (DSM 22834), P. damselae subsp. damselae (DSM 7482), Vibro anguillarum (DSM 21597), V. alginolyticus (DSM 2171), Aeromonas salmonicida subsp. salmonicida (DSM 19634), A. hydrophila subsp. hydrophila (DSM 30187), Yersinia ruckeri (DSM 18506), Edwardsiella tarda (DSM 30052), Lactococcus garviae (DSM 20684) and Streptococcus parauberis (DSM 6631). In short, 1 × 10^8 bacteria per milliliter were incubated in optimal growth conditions with the peptide in flat-bottom 96-well plates, in a final volume of 100 µL, and OD was read at 600 nm in a plate reader after 24 h of incubation. Wells with no added peptide were used as controls, and wells without bacteria were used as blanks. The minimal inhibitory concentration (MIC) was determined as the lowest concentration of piscidin that reduced 50% of bacterial growth when compared to the controls. The MICs reported correspond to representative results from two independent experiments.

In assay [2] the test system is Trypanosoma brucei brucei bloodstream forms (strain Lister 427). The assay is described as follows: Antiparasitic activity (resazurin reduction, IC50). It is filed as cell-based. To be noted: T. brucei brucei bloodstream forms; 72 h, serial dilutions up to 100 µM, 96-well, 200 µL; resazurin reduction (fluorescence 544/590 nm); non-linear regression; means ± SD, two separate experiments. As for the experimental part:
(§2) The anti-protozoal activity of sea bass piscidins was evaluated using two parasites: Trypanosoma brucei brucei bloodstream forms (strain Lister 427) and Leishmania infantum promastigotes (strain MHOM/MA/67/ITMAP-263). Parasites were incubated in optimal growth conditions with serial dilutions of the different peptides in flat-bottom 96-well plates, in a final volume of 200 µL, during 72 h. Cell metabolic activity was measured by resazurin reduction. Briefly, 20 µL of resazurin (50 µM) were added and incubated for 4 h. The fluorescence of resorufin, resulting from resazurin reduction by metabolically active cells, was measured at λex = 544 nm and λem = 590 nm in Synergy 2 (BioTek, Winooski, Vermont, USA). Cultures with no added peptide were used as negative controls and cultures with the reference drugs, namely pentamidine (10 nM) and miltefosine (40 µM) were used as positive controls for T. brucei and L. infantum inhibition assays, respectively. Wells with culture medium were used as blanks. Anti-parasitic effect was evaluated by the determination of IC50 value (concentration required to inhibit growth in 50%) and calculated by non-linear regression analysis using GraphPad Prism version 8.1.1 for Windows (GraphPad Software, San Diego, CA, USA). The IC50 reported correspond to representative results from two independent experiments.
(In general: Alamar Blue is a resazurin reagent that responds to reducing activity.)

Assay [3] has as its system Vibro anguillarum (DSM 21597). The format is cell-based, V. anguillarum. Conditions: DSM 21597, 24 h. As for the experimental part: as §1
In assay [4] the test system is Photobacterium damselae subsp. piscicida (DSM 22834). It is filed as cell-based. Conditions: DSM 22834, 24 h. As for the experimental part:
as §1

Assay [5] relates to Aeromonas salmonicida subsp. salmonicida (DSM 19634). The format is cell-based. Conditions: DSM 19634, 24 h. As for the experimental part:
as §1

Assay [6] concerns Yersinia ruckeri (DSM 18506). It is filed as cell-based. Conditions: DSM 18506, 24 h. As for the experimental part: as §1
For assay [7], the system named is Lactococcus garviae (DSM 20684). It is filed as cell-based. Conditions: DSM 20684, 24 h. As for the experimental part:
as §1

Assay [8] has as its system Streptococcus parauberis (DSM 6631). It is filed as cell-based. As for the experimental part:
as §1

Assay [9] concerns V. alginolyticus (DSM 2171). The format is cell-based. Conditions: DSM 2171, 24 h. As for the experimental part: as §1
The test system of assay [10] is Leishmania infantum promastigotes (strain MHOM/MA/67/ITMAP-263). It is filed as cell-based. To be noted: 72 h. As for the experimental part: as §2

Like-named read-outs stand apart in the source and are kept apart here. Ends that are not written are not given here.

A word on the MIC: it is the smallest concentration in the dilution series that meets the test's criterion for growth inhibition. A high value points to weaker potency. As a reminder, the IC50 is the point on the concentration scale where inhibition reaches its midpoint. Regarding FFHHIFRGIVHVGKTIHRLVTG-NH2 [Piscidin1], the MIC in assay [1] was 15.0 ± 0.2 µM; in assay [3], 16.3 ± 0.6 µM; in [4], 7.4 ± 1.6 µM; in [5], 64.2 ± 2.1 µM; in assay [6] it was 48.4 ± 3.8 µM; in assay [7], 33.9 ± 3.8 µM. For the same substance, the MIC in assay [8] (DSM 6631, 24 h) came out at 2.4 ± 0.8 µM; in [9], 34.8 ± 0.3 µM. Besides, the figures for the half-maximal inhibitory concentration (IC50) in assay [2] and in assay [10] were 3.88 ± 0.11 µM and 5.2 ± 0.03 µM, respectively.
On to FIHHIFRGIINAGKSIGRFITG-NH2 [Piscidin4], for which the MIC is 81.3 ± 9.5 µM in assay [1]; 29.1 ± 12.0 µM in assay [4]; 48.8 ± 40.1 µM in assay [7]; 1.8 ± 1.8 µM in assay [8] (DSM 6631, 24 h). Besides, the IC50 amounted to 3.24 ± 0.16 µM in assay [2] and 8.34 ± 0.81 µM in assay [10].
With “FLGRFFRRTQAILRGARQGWRAHKAVSRYRDRYIPETDNNQEQP-NH2 [Piscidin2]”, the MIC in assay [1] came out at 105.8 ± 22.1 µM; in assay [3] it was 146.1 ± 21.4 µM; in assay [4], 9.1 ± 1.7 µM; in assay [5], 67.7 ± 0.2 µM; in assay [6], 137.6 ± 3.1 µM; in assay [8] (DSM 6631, 24 h), 6.9 ± 2.8 µM. The same substance yielded an MIC in assay [9] of 66.2 ± 2.0 µM. Moreover, the figures for the IC50 in [2] and in assay [10] were 1.74 ± 0.13 µM and 5.52 ± 0.26 µM, respectively.
Take “FLGRVKSMWSGVRNGYKAYKYQRNMAKMNKGYGPNWQQGGGQEPPADAQANDQPP-NH2 [Piscidin7]”: the IC50 was found to be 7.3 ± 0.32 µM in [2] and 66.77 ± 0.08 µM in assay [10].
As for “LFGSLKAWFKGGKQASRDYKYQKDMAKMNKRYGPNWQQGGGQQPPANAQANDQPPADAQANDQPS-NH2 [Piscidin6, synthetic putative mature peptide of European sea bass piscidin 6, 65 aa, MT066195]”, the IC50 in assay [2] came to 56.5 ± 1.61 µM. Moreover, in assay [8] (S. parauberis, 1 × 10^8 bacteria/mL, 96-well, 100 µL, 24 h, OD 600 nm, serial dilutions up to 200 µM, MIC = lowest concentration that reduced 50% of bacterial growth vs controls, means ± SD, two separate experiments, N.A. = not active at the highest concentration tested), the MIC was 87.7 ± 123.0 µM.
In the case of “LIGSLFRGAKAIFRGARQGWRAHKAVSRYRAGYVRRPVVYYHRVYP-NH2 [Piscidin5]”, the MIC in [1] was found to be 14.8 ± 2.0 µM; in [3], 10.1 ± 2.7 µM; in [4], 3.3 ± 0.1 µM; in [5] it was 47.9 ± 6.1 µM; in [6] it was 25.4 ± 1.8 µM; in assay [7], 42.3 ± 16.4 µM. In addition, the MIC came out at 1.3 ± 1.2 µM in assay [8] (DSM 6631, 24 h) and 36.9 ± 2.3 µM in [9]. In addition, the IC50 came out at 4.42 ± 0.12 µM in assay [2] and 7.24 ± 0.61 µM in assay [10].

(Values after article PMC7369796, “The Diverse Piscidin Repertoire of the European Sea Bass (Dicentrarchus labrax): Molecular Characterization and Antimicrobial Activities” (International Journal of Molecular Sciences, 2020).)
